Assay results: ChEMBL document CHEMBL3351435, “New pyrrole derivatives with potent tubulin polymerization inhibiting activity as anticancer agents including hedgehog-dependent cancer” (J Med Chem, 2014)
The source made the active and inactive calls. The rule behind the calls is not given here.

Experiments:
[1] = Cytotoxicity against human PC3 cells assessed as growth inhibition after 48 hrs by MTT method; assay type: functional, cell-based; conditions: PC-3, 48 h
[2] = Mean residence time in CD-1 mouse at 5 mg/kg, iv; assay type: ADME, organism-based; design: dose 5 mg/kg, route intravenous; conditions: in vivo
[3] = Cell cycle arrest in human PC3 cells assessed as rounded cells at 500 nM after 24 hrs by propidium iodide staining-based flow cytometry; assay type: functional; conditions: PC-3
[4] = target: CYP2C9 (Homo sapiens, UniProt P11712); assay: Inhibition of human CYP2C9 using sulfaphenazole as substrate at 1 uM; assay type: ADME; conditions: probe sulfaphenazole
[5] = Cell cycle arrest in human PC3 cells assessed as accumulation at G2/M phase at 500 nM after 24 hrs by propidium iodide staining-based flow cytometry; assay type: functional; conditions: PC-3
[6] = tested on: HepG2; assay: Cytotoxicity against human HepG2 cells assessed as growth inhibition after 48 hrs by MTT method; assay type: functional, cell-based; conditions: HepG2, 48 h
[7] = tested on: HT-29; assay: Cytotoxicity against human HT-29 cells assessed as growth inhibition after 48 hrs by MTT method; assay type: functional, cell-based; conditions: HT-29, 48 h
[8] = AUC infinity in CD-1 mouse at 15 mg/kg, po; assay type: ADME, organism-based; design: time infinity, dose 15 mg/kg, route oral; conditions: plasma
[9] = Elimination half life in CD-1 mouse at 15 mg/kg, po; assay type: ADME, organism-based; design: dose 15 mg/kg, route oral; conditions: in vivo, read-out: beta t1/2
[10] = target: CYP3A4 (Homo sapiens, UniProt P08684); assay: Inhibition of human CYP3A4 using ketoconazole as substrate at 1 uM; assay type: ADME; conditions: probe ketoconazole
[11] = Inhibition of hedgehog signaling in mouse NIH/3T3 Shh-Light II cells after 48 hrs by luciferase reporter gene assay; assay type: functional, cell-based
[12] = Cytotoxicity against human D283 cells; assay type: functional, cell-based
[13] = AUC infinity in CD-1 mouse at 5 mg/kg, iv; assay type: ADME, organism-based; design: time infinity, dose 5 mg/kg, route intravenous; conditions: plasma
[14] = tested on: HepG2; assay: Cell cycle arrest in human HepG2 cells assessed as rounded cells at 500 nM after 24 hrs by propidium iodide staining-based flow cytometry; assay type: functional
[15] = target: Tubulin (Homo sapiens) (UniProt P68371+Q9H4B7+P0DPH7+P68366+Q13509+Q71U36+P04350+Q3ZCM7+P07437+P68363+Q9BQE3+Q6PEY2+Q13885+Q9BVA1+Q9BUF5); assay: Displacement of [3H]colchicine from tubulin (unknown origin) at 5 uM after 10 mins; assay type: protein-complex assay

Chain of CYP3A4 (P08684 whole entry): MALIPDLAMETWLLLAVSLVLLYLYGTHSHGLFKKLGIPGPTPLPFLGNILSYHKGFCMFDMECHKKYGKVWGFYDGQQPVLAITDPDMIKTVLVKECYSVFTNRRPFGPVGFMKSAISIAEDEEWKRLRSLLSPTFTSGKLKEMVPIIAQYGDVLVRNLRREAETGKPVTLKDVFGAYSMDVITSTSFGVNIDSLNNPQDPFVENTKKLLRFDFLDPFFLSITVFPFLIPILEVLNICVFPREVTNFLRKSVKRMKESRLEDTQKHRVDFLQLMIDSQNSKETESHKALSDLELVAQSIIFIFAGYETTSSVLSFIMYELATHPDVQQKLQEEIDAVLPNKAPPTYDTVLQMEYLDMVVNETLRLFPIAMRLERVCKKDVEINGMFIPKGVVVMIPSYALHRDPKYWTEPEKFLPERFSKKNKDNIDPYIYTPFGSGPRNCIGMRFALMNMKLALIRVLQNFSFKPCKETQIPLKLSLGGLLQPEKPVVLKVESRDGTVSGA
Chain of CYP2C9 (P11712 whole entry): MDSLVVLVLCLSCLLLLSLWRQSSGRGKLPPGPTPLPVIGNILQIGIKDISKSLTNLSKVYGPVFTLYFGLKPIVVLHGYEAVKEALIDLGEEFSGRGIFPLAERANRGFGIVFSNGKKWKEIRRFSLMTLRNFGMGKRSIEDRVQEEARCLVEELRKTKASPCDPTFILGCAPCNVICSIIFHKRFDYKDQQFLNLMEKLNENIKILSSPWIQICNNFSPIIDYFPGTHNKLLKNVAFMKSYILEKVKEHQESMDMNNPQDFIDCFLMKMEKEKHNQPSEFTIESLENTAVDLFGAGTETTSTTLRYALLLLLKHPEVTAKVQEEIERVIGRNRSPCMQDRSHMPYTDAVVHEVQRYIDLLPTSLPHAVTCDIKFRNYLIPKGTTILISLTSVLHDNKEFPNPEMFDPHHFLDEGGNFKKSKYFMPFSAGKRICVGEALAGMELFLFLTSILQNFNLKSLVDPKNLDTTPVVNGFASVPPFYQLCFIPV

COc1cc(C(=O)c2ccn(-c3cccc(N)c3)c2)cc(OC)c1OC
IC50 [1]: 0.0098 µM
MRT [2]: 0.517 h
Activity [3]: Active
inhibition at 1 µM [4]: 28.9%
Activity [5]: Active
IC50 [6]: 0.275 µM
IC50 [7]: 0.06 µM
AUC(0-inf) [8]: 1.47 µg·h/mL
half-life [9]: 2.98 h
inhibition at 1 µM [10]: 12.2%
IC50 [11]: 0.676 µM
inhibition [11]: Dose-dependent effect
IC50 [12]: 0.58 µM
AUC(0-inf) [13]: 1.03 µg·h/mL
Activity [14]: Active
inhibition [15]: 86%
